SMILES strings stand for the structures.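 Protocol summary: plate cells (96-well), add compound at 5 concentrations, incubate 48 h, interpolate endpoints linearly. GI50 marks 50% less growth. The concentration for full growth arrest is given as TGI.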

From PubChem BioAssay (NCI) come the findings set out here.

Among the test systems are MALME-3M melanoma; SNB-75 CNS; SF-268 CNS; 786-0 renal; A498 renal; NCI-H460 lung; SK-MEL-5 melanoma; OVCAR-5 ovarian; M14 melanoma.
Common to all, as to test: NCI anticancer screen, dose series, 48 h

In the case of `COC(=O)/C(=N\NC(N)=S)C(C(=O)OC)C(=O)C(=O)Nc1ccc(C)cc1` (stereo not drawn), the TGI in the test on MALME-3M melanoma, in the test on SNB-75 CNS, with SF-268 CNS, in the test with 786-0 renal, in the test with A498 renal and in the test on NCI-H460 lung was above 100 µM throughout. In addition, the TGI in the test on SK-MEL-5 melanoma, in the test on OVCAR-5 ovarian and in the test with M14 melanoma was above 100 µM in each case.

Consider `CCOC(=O)c1ccc(/C(C)=N/NC(N)=S)cc1`, for which the TGI in the test on SNB-75 CNS, with 786-0 renal, in the test on A498 renal, with NCI-H460 lung, in the test on SK-MEL-5 melanoma and with M14 melanoma was above 100 µM each time.

For the molecule `COC(=O)/C(C#N)=C1\N=NNN1c1ccc(OC)cc1`, the TGI in the test on MALME-3M melanoma, in the test on SNB-75 CNS, with 786-0 renal, in the test with A498 renal, with NCI-H460 lung and with SK-MEL-5 melanoma was above 100 µM each time. Further, the TGI with M14 melanoma is above 100 µM.

Take `O=[N+]([O-])c1ccc2occ3c2c1CCC3`: the TGI in the test on MALME-3M melanoma, with SNB-75 CNS, in the test with SF-268 CNS, in the test with 786-0 renal, in the test with A498 renal and in the test on NCI-H460 lung was above 100 µM throughout. For the same molecule, the TGI in the test with SK-MEL-5 melanoma, with OVCAR-5 ovarian and with M14 melanoma was above 100 µM throughout.

Take `O=C(Nc1cccc(Cl)c1)C(=O)C(C(=O)c1ccc2ccccc2c1)C1OC(=O)c2ccccc21` (stereo not drawn): the TGI in the test on MALME-3M melanoma came to 30.8 µM; with SF-268 CNS, 57.5 µM; in the test on 786-0 renal it was 22.9 µM; in the test with NCI-H460 lung, 30.5 µM; in the test on SK-MEL-5 melanoma it was 30.3 µM; in the test with OVCAR-5 ovarian it was 59.6 µM. The molecule also returned a TGI in the test on M14 melanoma of 36.7 µM.

On to `O=C(OC1CCC(=C2SCCCS2)[C@H]1C1SCCCS1)c1ccccc1` (stereo partly drawn), for which the TGI in the test on MALME-3M melanoma, in the test on 786-0 renal, in the test with A498 renal, in the test with NCI-H460 lung and in the test on M14 melanoma was above 100 µM each time.

For `Cc1nc(Nc2ccc(Cl)cc2)sc1C(=O)NNC(=S)NN`, the TGI in the test with MALME-3M melanoma was 35.5 µM; with SNB-75 CNS, 64.3 µM; in the test on SF-268 CNS it was 48.5 µM; in the test with 786-0 renal, 30.2 µM; in the test on A498 renal, 29.1 µM; with NCI-H460 lung, 38.3 µM. Further, the TGI in the test on SK-MEL-5 melanoma is 32.9 µM; in the test with OVCAR-5 ovarian, 31.4 µM; with M14 melanoma, 35.1 µM.

With `CCCCCCCCCCCCCCCC(=O)OCCOCCOCCOCc1ccccc1`, the TGI in the test on MALME-3M melanoma, in the test on SNB-75 CNS, in the test with SF-268 CNS, in the test with 786-0 renal, in the test with A498 renal and in the test on NCI-H460 lung was above 100 µM throughout. Also, the TGI with SK-MEL-5 melanoma and in the test on OVCAR-5 ovarian was above 100 µM each time.

As for `CC(C)(C)c1cc(C(P(=O)(O)O)P(=O)(O)O)cc(C(C)(C)C)c1O`, the TGI in the test with SNB-75 CNS, in the test with SF-268 CNS, in the test on 786-0 renal, in the test on A498 renal, with NCI-H460 lung and with SK-MEL-5 melanoma was above 100 µM each time. The TGI in the test with OVCAR-5 ovarian and with M14 melanoma was above 100 µM in each case.

As for `CC1(C)COC(c2cccc3c2C(=O)c2cccc(Cl)c2-3)=N1`, the TGI with MALME-3M melanoma, with SNB-75 CNS, in the test with SF-268 CNS, in the test on 786-0 renal, with A498 renal and in the test on NCI-H460 lung was above 100 µM throughout. Further, the TGI is 73.4 µM in the test on SK-MEL-5 melanoma, above 100 µM in the test on OVCAR-5 ovarian and above 100 µM with M14 melanoma.

Consider `COc1ccc(OCC(=O)O)c2c1CCCC2=O`, for which the TGI in the test with MALME-3M melanoma, in the test with SNB-75 CNS, in the test on SF-268 CNS, in the test with 786-0 renal, in the test on A498 renal and in the test with NCI-H460 lung was above 100 µM each time. The TGI with SK-MEL-5 melanoma, in the test on OVCAR-5 ovarian and in the test with M14 melanoma was above 100 µM in each case.

`COC(=O)C1CCCC2(C1)OCCO2` (stereo not drawn): the TGI in the test with MALME-3M melanoma, in the test on SNB-75 CNS, with SF-268 CNS, in the test on 786-0 renal, in the test with A498 renal and in the test with NCI-H460 lung was above 100 µM throughout. Also, the TGI with SK-MEL-5 melanoma, in the test on OVCAR-5 ovarian and with M14 melanoma was above 100 µM throughout.

With `COc1ccc(CCN(C)C2CCC(C#N)(c3ccc(OC)c(OC)c3)CC2)cc1OC` (stereo not drawn), the TGI in the test on MALME-3M melanoma, in the test on SNB-75 CNS, with SF-268 CNS, in the test on 786-0 renal, in the test with NCI-H460 lung and in the test on SK-MEL-5 melanoma was above 100 µM in each case. Besides, the TGI with OVCAR-5 ovarian and in the test with M14 melanoma was above 100 µM in each case.

Consider `COc1cnc2c(c1)C(=O)c1c-2n(CCCNC2=NCCS2)c(=O)c2cc([N+](=O)[O-])ccc12`, for which the GI50 with SNB-75 CNS is 0.0329 µM; in the test on SF-268 CNS it was below 0.01 µM; with 786-0 renal, 0.0235 µM; in the test on NCI-H460 lung it was below 0.01 µM; in the test on SK-MEL-5 melanoma, 0.0284 µM; in the test with OVCAR-5 ovarian, 1.04 µM. For the same molecule, in the test with M14 melanoma, the GI50 was below 0.01 µM. The TGI in the test on SNB-75 CNS was 1.81 µM; with SF-268 CNS it was 1.88 µM; in the test with 786-0 renal it was 0.0925 µM; with NCI-H460 lung, 1.24 µM; in the test on SK-MEL-5 melanoma, 0.157 µM; in the test on OVCAR-5 ovarian, 3.59 µM. This molecule yielded a TGI in the test with M14 melanoma of 1.16 µM.

Take `C=CCCCCC1CCC2CCC(CCCCC=C)N12` (stereo not drawn): the TGI with MALME-3M melanoma stood at 31.8 µM; with SNB-75 CNS, 43.1 µM; in the test on SF-268 CNS it was 29.8 µM; with 786-0 renal, 26.9 µM; in the test on NCI-H460 lung it was 26.2 µM; in the test on SK-MEL-5 melanoma, 26.9 µM. Moreover, the TGI in the test with M14 melanoma stood at 31.3 µM.

Consider `Cc1ccc2nc(/C(=C/c3ccc(/C=C(\NC(=O)c4ccccc4)c4nc5ccc(C)cc5[nH]4)c(C)c3)NC(=O)c3ccccc3)[nH]c2c1`, for which the TGI is 59.9 µM in the test with MALME-3M melanoma; above 100 µM with SNB-75 CNS; above 100 µM in the test on SF-268 CNS; 60.4 µM in the test on 786-0 renal; 53.6 µM with A498 renal; 35.8 µM with NCI-H460 lung. Further, the TGI in the test on SK-MEL-5 melanoma was 33.5 µM; in the test on OVCAR-5 ovarian, 33.8 µM; in the test on M14 melanoma it was 52.7 µM.
